Test results as given in US20190125735A1, “INHIBITION OF P38 MAPK FOR THE TREATMENT OF CANCER” (Board of Regents, The University of Texas System, priority 2015, published 2019).

Experiments:
Assay type in all cases: cell-based, human
HMLE-Snail-ER cells = assay: 4-OHT inducible EMT in HMLE-Snail-ER cells, immunoblotting; details: HMLE-Snail-ER concurrently exposed to 4-OHT and SB203580
Procedure: To ascertain whether inhibiting p38 impedes the initiation of EMT, two dynamic models of EMT induction were utilized. First, MCF10A immortalized human mammary epithelial cells were treated with TGFβ1 which elicits EMT. […] Second, an inducible EMT system was used wherein a fusion protein, comprising the EMT-inducing transcription factors Snail or Twist and the estrogen-binding domain of the estrogen receptor (ER), is stably expressed in epithelial HMLE cells (HMLE-Snail-ER, HMLE-Twist-ER). Addition of the ER-ligand tamoxifen (4-OHT) promotes nuclear translocation of the Snail-ER and Twist-ER proteins and elicits EMT. […] Similarly, p38 shRNA abolished the capacity of HMLE-Twist-ER cells to undergo EMT (FIG. 4E, compare lanes 4 to 8) and to form spheres (FIG. 16F) in response to 4-OHT treatment.
Immortalized human mammary epithelial (HMLE) cells expressing empty vector (pWZL), Snail, Twist, Goosecoid (GSC), or an activated form of TGFβ1, V12H-Ras-transformed HMLE (HMLER) and HMLER-FOXC2 cells were maintained as previously described (Elenbaas et al., 2001) For 4-hydroxy-tamoxifen (4-OHT) treatment, HMLE-Snail-ER or HMLE-Twist-ER cells were exposed to 20 nM 4-OHT for the indicated number of days. MCF7, MDA-MB-231 and SUM159 human breast cancer cells and the 4T1 mouse mammary carcinoma cells were cultured as described. […]

[1] = system: HMLE-Snail-ER and HMLE-Twist-ER cells; assay: Sphere formation of 4-OHT-treated HMLE-Snail-ER and HMLE-Twist-ER cells; details: 4-OHT-treated cells, SB203580 exposure
Procedure: FIGS. 15A-15L: p38 inhibition compromises the acquisition and maintenance of EMT and stem cell properties in vitro. […] Cells were harvested and the corresponding lysates were analyzed by immunoblotting for FOXC2, E-cadherin and mesenchymal markers. β-actin was used as a loading control. […] Cells were harvested at the indicated timepoints and the corresponding lysates were analyzed by immunoblotting for FOXC2, E-cadherin and mesenchymal markers. β-actin was used as a loading control. […] One thousand cells were seeded per well in ultra-low attachment plates and cultured for 7-10 days. Spheres with a diameter greater than 75 μm were counted. The data are reported as the number of spheres formed/1000 seeded cells±SEM. […] Data are presented as mean±SEM. […] The corresponding lysates were analyzed by immunoblotting for FOXC2, E-cadherin and mesenchymal markers. β-actin was used as a loading control. (F) The sphere-forming efficiency of 4-OHT-treated HMLE-Twist-ER cells, transduced with control shRNA (shControl) or p38 shRNA (shp38), was determined. […] (H) The sphere-forming efficiency of the indicated cells was determined in the presence of vehicle or SB203580. […] (J) The relative wound closure by the indicated cells, treated with vehicle or SB203580, was measured by image analysis and represented in a graphical format. […] Degradation of FITC-gelatin was quantified by image analysis. n=150 cells/sample. […]

DU145 cells = assay: MTS cell survival assay, DU145 cells
Procedure: Immunoblotting, Immunofluorescence, RTPCR, wound healing- and tumorsphere assays were performed as previously described (Sarkar et al., 2015). Cell viability (MTS) was assessed using the CellTiter96 Aqueous One-Solution Cell Proliferation Assay kit (Promega).

SMILES: C[S+]([O-])c1ccc(-c2nc(-c3ccc(F)cc3)c(-c3ccncc3)[nH]2)cc1 (stereo not shown) [SB203580, 4-(4-Fluorophenyl)-2-(4-methylsulfinylphenyl)-5-(4-pyridyl) 1H-imidazole]
- EMT and FOXC2 upregulation (HMLE-Snail-ER cells): failed to undergo EMT or upregulate FOXC2
- Sphere-forming potential [1]: failed to acquire sphere-forming potential
- Sensitivity of cells to Docetaxel (cell survival) (DU145 cells; DU145, SB203580 pre-treatment then co-treatment with SB203580 and Docetaxel): significantly resensitized
- Sensitivity of cells to Enzalutamide (cell survival) (DU145 cells; DU145, SB203580 pre-treatment then co-treatment with SB203580 and Enzalutamide): significantly resensitized
